In assay [1] the target is T1, PDK1-PKD protein (Protein Kinase Domain fragment) (Homo sapiens, UniProt O15530).
T1 construct: the Protein Kinase Domain (PKD) fragment; inferred from Ni-NTA purification; made in house; host or cells: Sf9 insect cells, baculovirus expression system
In words: Microscale Thermophoresis (MST) binding affinity, PDK1-PKD. Particulars: in the presence of ATP; FIG. 48; read-out: Dissociation constant (Kd), PDK1-PKD. The procedure:
Microscale Thermophoresis (MST) analysis was performed to quantitatively measure the binding affinity between PDK1 protein and substrate peptides (PDKTide) or the company-developed low-molecular-weight compound (GO88).
The target proteins were the full-length (PDK1-FL) protein of human-derived PDK1 and the Protein Kinase Domain (PKD) fragment, which were expressed using a baculovirus expression system in insect cell lines (Sf9).
The purity of the purified proteins was confirmed by SDS-PAGE and Coomassie Brilliant Blue staining.
The purified protein was labeled with a fluorescent label using the Monolith NT™ RED-NHS Protein Fluorescent Labeling Kit (NanoTemper).
Specifically, 20 μM of the protein was dissolved in PBS (pH 7.4) buffer, mixed with the fluorescent reagent, and reacted at room temperature under dark conditions for 30 minutes. The mixture was then buffered with MST analysis buffer (50 mM HEPES, 150 mM NaCl, 1 mM DTT, 0.05% Tween-20, pH 7.5). […]
The reaction samples were injected into an MST-specific capillary (NanoTemper) and analyzed using a Monolith NT.115 device (NanoTemper) under laser intensity conditions. […]
The measured data were analyzed using MO.Affinity Analysis software (NanoTemper), and the dissociation constant (Kd) was calculated from the binding curve.
A general note: Microscale thermophoresis detects binding through changes in fluorescence in a small temperature gradient.

For assay [2], the system named is human lung fibroblasts MRC-5 cell lines. Briefly: TGF-β induced Collagen I expression in MRC-5 cells (Western blot). Type of assay: cell-based. The conditions noted are these: TGF-β 5 ng/ml; 0.5 μM and 1 μM; 24 hours; FIG. 44. The procedure:
To confirm that the compound of the present invention directly acts on fibrosis-related mechanisms, in vitro experiments were performed using human lung fibroblasts MRC-5 cell lines (Korea Cell Bank).
First, MRC-5 cells were seeded at 5×10^3 cells per well in a 6-well plate and stabilized for 24 hours.
Subsequently, experimental groups were established, including a control group, a group treated with TGF-β (5 ng/ml) alone, and groups treated with TGF-β and the compound GO88 from the present invention at concentrations of 0.5 μM and 1 μM, respectively.
After treating each group with the drugs for 24 hours, the cell medium was removed, and the cells were washed twice with cold PBS. Then, RIPA lysis buffer containing phosphatase inhibitor and protease inhibitor was added to each group to extract proteins.
The extracted proteins were incubated at 4° C. for 30 minutes, then centrifuged at 13,000 rpm for 15 minutes, and the supernatant was collected. The total protein concentration was measured using the BCA protein quantification method.
Subsequently, the proteins were separated by SDS-PAGE, transferred to a PVDF membrane, and Western blot analysis was performed.
The expression levels of Collagen I, a marker related to pulmonary fibrosis, were confirmed, with GAPDH used as an internal control.

Assay [3] deals with Human Gastric cancer cell, SNU-719. Briefly: Relative cell viability CCK-8, SNU-719. Type of assay: cell-based. The conditions noted are these: 48 hours. The procedure:
Human-derived breast cancer cell line MCF-7, human-derived lung cancer cell line A549, human-derived colorectal cancer cell line HCT-116, human pancreatic cancer cell line AsPC-1, glioblastoma cell line A172, and melanoma cell line Malme-3M were obtained from the Korean Cell Bank. gastric cancer cell line SNU-719, and bladder cancer cell line T24 were cultured in RPMI-1640 medium containing 10% FBS.
Following stabilization, the cells were harvested using Trypsin-EDTA treatment, centrifuged at 1,200 rpm for 3 minutes, the supernatant was removed, and the cells were resuspended in the same medium. They were then seeded into a 96-well plate (Costar 96-well cell culture plate, Corning) at 100 μL per well, and the conditions were adjusted as indicated in Table 5.
The cells were cultured in a 5% CO2 incubator at 37° C. for 24 hours, and after stabilization of the cells, each plate was washed with 200 μL of PBS per well and treated with 50 μL of culture medium per well.
After that, 10 μL of CCK-8 was added to each well, and the plate was incubated again at 37° C. in a 5% CO2 incubator for 2 hours.
In other words, when the survival rate of untreated cells (DMSO) is set at 100%, the relative cell survival rate in each group treated with the drug at different concentrations is indicated.

Assay [4] has as its system NHDF (Normal Human Dermal Fibroblast) cells. In words: Doxorubicin/IGF-1 induced aging of NHDF cells (SA-β-gal, Ki-67 FACS). Type of assay: cell-based. The conditions noted are these: 0.01, 1 μM; Doxorubicin 100 ng/ml + IGF-1 100 ng/ml, 7 days; FIG. 39. The procedure: To confirm the anti-aging and rejuvenating effects of the compound GO15F of the present invention, a NHDF (Normal Human Dermal Fibroblast, Promocell) cell model was established by inducing aging with doxorubicin (Doxorubicin), and β-galactosidase activity and Ki-67 expression were analyzed in the cells. First, NHDF cells were seeded at 1×10^4 cells per well in a 12-well plate and stabilized for 24 hours. […] After pre-incubation, the medium was removed, and the cells were cultured for 7 days in medium containing Doxorubicin (100 ng/ml) and IGF-1 (100 ng/ml) with GO15F. During this process, the medium was replaced with fresh medium every 2 days. The cultured cells were washed with PBS, fixed with 1× fixation buffer for 15 minutes, washed again with PBS, and then 300 μL of 1× working SA-β-gal buffer was added to each well. The cells were incubated at 37° C. for 24 hours. After the reaction was terminated, the cells were washed with PBS, and the […] of β-gal-positive cells stained blue was observed and photographed using a light microscope. Additionally, to investigate the effect of the compound (GO15F) of the present invention on proliferation activity in aging-induced NHDF (Normal Human Dermal Fibroblast) cells, Ki-67 expression was measured via FACS analysis. First, NHDF cells were seeded at 1×10^4 cells per well in a 12-well plate and stabilized for 24 hours. […]

Each structure is given as a SMILES string.

T1 sequence (O15530 82-342 limits assumed): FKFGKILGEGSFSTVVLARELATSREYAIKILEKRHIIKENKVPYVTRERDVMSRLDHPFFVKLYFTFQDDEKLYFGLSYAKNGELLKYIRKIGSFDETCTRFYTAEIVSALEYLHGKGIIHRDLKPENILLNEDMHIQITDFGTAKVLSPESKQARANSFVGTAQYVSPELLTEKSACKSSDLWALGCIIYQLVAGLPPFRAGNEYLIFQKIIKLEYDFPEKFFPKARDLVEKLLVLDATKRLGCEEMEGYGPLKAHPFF

`Nc1ncccc1C(=O)NCCCCCCCCCCCCN1CCNCC1` [Compound 14, 2-Amino-N-(12-(piperazin-1-yl)dodecyl)nicotinamide]: in assay [1], the Kd is around 0.371 µM. Also, the “Protein expression of Collagen I” value in assay [2] is “inhibited in a concentration-dependent manner”. The compound also came in with a viability at 1 µM in assay [3] (1 μM) of 49.9%. In assay [3] (10 μM), this compound yielded a viability at 10 µM of 47.8%. In assay [3] (30 μM), the viability at 30 µM is 44.4%. The same compound returned a viability at 50 µM in assay [3] (50 μM) of 45.5%.

Regarding `Nc1ncccc1C(=O)NCCCCCCCCCCCCF` [Compound 57, 2-Amino-N-(12-fluoro-dodecyl)-nicotinamide], the “Number of β-gal-positive cells (SA-β-gal)” value in assay [4] was “the number of β-gal-positive cells decreased”.

In general, Kd refers to a measure of binding affinity in units of concentration. As usually defined, the viability is a read-out of living cells in per cent, often relative to untreated cells. A low value points to more harm to the cells.

These data come from patent US20260183274A1, “PDK1 REGULATORY COMPOUND AND COMPOSITION CONTAINING THE SAME” (PROVIBIO CO., LTD., priority 2024, published 2026).
